Reference: ChEMBL document CHEMBL5050850, “Compositions and methods of using the same for treatment of neurodegenerative and mitochondrial disease” (2020)
pEC50: −log10 of the molar value. ≈ marks a conversion by molar mass, not a printed value.

Tests used:
[1] = Solubility of compound in PBS; type: physicochemical
[2] = Induction of mitophagy in human HeLa MKYP cells treated at 6.3 uM with FCCP/oligomycin for 6 hrs and measured by FACS analysis relative to control; type: functional; conditions: 6 h, 6.3 µM
[3] = Induction of mitophagy in human HeLa MKYP cells treated with FCCP/oligomycin for 6 hrs and measured by FACS analysis; type: functional, cell-based
HeLa [4] = assay: Cytotoxicity against human HeLa MKYP cells assessed as percentage of DAPI-positive cells at 50 uM and measured by DAPI staining method; type: toxicity, cell-based
HeLa [5] = assay: Cytotoxicity against human HeLa MKYP cells assessed as cell death at 25 uM treated with FCCP/oliogmycin and measured DAPI staining method assay relative to control; type: toxicity, cell-based
HeLa [6] = assay: Cytotoxicity against human HeLa MKYP cells assessed as cell death at 25 uM and measured DAPI staining method assay relative to control; type: toxicity, cell-based
[7] = Ratio of highest compound concentration with no observable mitotoxicity to EC50 of compound to induce mitophagy in human HeLa MKYP cells; type: functional
[8] = Cmax in mouse at 1 mg/kg, iv; type: ADME, organism-based; set-up: route intravenous, dose 1 mg/kg; conditions: in vivo
[9] = Observed AUC in mouse at 1 mg/kg, iv; type: ADME, organism-based; set-up: dose 1 mg/kg; conditions: in vivo
[10] = AUC in mouse at 1 mg/kg, iv; type: ADME, organism-based; set-up: dose 1 mg/kg; conditions: in vivo
[11] = Cmax in mouse at 10 mg/kg, po; type: ADME, organism-based; set-up: route oral, dose 10 mg/kg; conditions: in vivo
[12] = Half-life in mouse at 10 mg/kg, po; type: ADME, organism-based; conditions: in vivo
[13] = AUC in mouse at 10 mg/kg, po; type: ADME, organism-based; set-up: dose 10 mg/kg; conditions: in vivo
[14] = Oral bioavailability in mouse at 10 mg/kg; type: ADME, organism-based; conditions: in vivo
[15] = Cmax in mouse at 50 mg/kg, po; type: ADME, organism-based; set-up: route oral, dose 50 mg/kg; conditions: in vivo
[16] = Half-life in mouse at 50 mg/kg, po; type: ADME, organism-based; conditions: in vivo
[17] = Observed AUC in mouse 50 mg/kg, po; type: ADME, organism-based; set-up: dose 50 mg/kg; conditions: in vivo
[18] = AUC in mouse at 50 mg/kg, po; type: ADME, organism-based; set-up: dose 50 mg/kg; conditions: in vivo
[19] = Oral bioavailability in mouse at 50 mg/kg; type: ADME, organism-based; conditions: in vivo
[20] = AUC (infinity) in mouse at 1 mg/kg, iv; type: ADME, organism-based; set-up: route intravenous, time infinity, dose 1 mg/kg; conditions: in vivo
[21] = AUC (extrapolated) in mouse at 1 mg/kg, iv; type: ADME, organism-based; conditions: in vivo
[22] = MRT (infinity) in mouse at 1 mg/kg, iv; type: ADME, organism-based; conditions: in vivo
[23] = AUC (infinity) in rat at 1 mg/kg, iv; type: ADME, organism-based; set-up: route intravenous, time infinity, dose 1 mg/kg; conditions: in vivo
[24] = AUC (extrapolated) in rat at 1 mg/kg, iv; type: ADME, organism-based; conditions: in vivo
[25] = MRT (infinity) in rat at 1 mg/kg, iv; type: ADME, organism-based; conditions: in vivo
[26] = Initial plasma concentration in mouse at 10 mg/kg, po; type: ADME, organism-based; conditions: in vivo
[27] = AUC (infinity) in mouse at 10 mg/kg, po; type: ADME, organism-based; set-up: route oral, time infinity, dose 10 mg/kg; conditions: in vivo
[28] = Apparent volume of distribution in mouse at 10 mg/kg, po; type: ADME, organism-based; conditions: in vivo
[29] = MRT (infinity) in mouse at 10 mg/kg, po; type: ADME, organism-based; conditions: in vivo
[30] = Initial plasma concentration in rat at 10 mg/kg, po; type: ADME, organism-based; conditions: in vivo
[31] = AUC (infinity) in rat at 10 mg/kg, po; type: ADME, organism-based; set-up: time infinity, route oral, dose 10 mg/kg; conditions: in vivo
[32] = Apparent volume of distribution in rat at 10 mg/kg, po; type: ADME, organism-based; conditions: in vivo
[33] = Brain concentration in mouse at 10 mg/kg, po measured at 0.5 hrs; type: ADME, organism-based; conditions: read-out: Drug uptake
[34] = Brain concentration in mouse at 10 mg/kg, po measured at 1 hr; type: ADME, organism-based; conditions: read-out: Drug uptake
[35] = Brain concentration in mouse at 10 mg/kg, po measured at 2 hrs; type: ADME, organism-based; conditions: read-out: Drug uptake
[36] = Plasma concentration in mouse at 10 mg/kg, po measured at 0.5 hrs; type: ADME, organism-based
[37] = Plasma concentration in mouse at 10 mg/kg, po measured at 1 hr; type: ADME, organism-based
[38] = Plasma concentration in mouse at 10 mg/kg, po measured at 2 hrs; type: ADME, organism-based
[39] = Kidney concentration in mouse at 10 mg/kg, po measured at 0.5 hrs; type: ADME, organism-based; conditions: read-out: Drug uptake
[40] = Kidney concentration in mouse at 10 mg/kg, po measured at 1 hr; type: ADME, organism-based; conditions: read-out: Drug uptake
[41] = Kidney concentration in mouse at 10 mg/kg, po measured at 2 hrs; type: ADME, organism-based; conditions: read-out: Drug uptake
[42] = Brain concentration in mouse at 50 mg/kg, po measured at 0.5 hrs; type: ADME, organism-based; conditions: read-out: Drug uptake
[43] = Brain concentration in mouse at 50 mg/kg, po measured at 1 hr; type: ADME, organism-based; conditions: read-out: Drug uptake
[44] = Brain concentration in mouse at 50 mg/kg, po measured at 2 hrs; type: ADME, organism-based; conditions: read-out: Drug uptake
[45] = Plasma concentration in mouse at 50 mg/kg, po measured at 0.5 hrs; type: ADME, organism-based
[46] = Plasma concentration in mouse at 50 mg/kg, po measured at 1 hr; type: ADME, organism-based
[47] = Plasma concentration in mouse at 50 mg/kg, po measured at 2 hrs; type: ADME, organism-based
[48] = Kidney concentration in mouse at 50 mg/kg, po measured at 0.5 hrs; type: ADME, organism-based; conditions: read-out: Drug uptake
[49] = Kidney concentration in mouse at 50 mg/kg, po measured at 1 hr; type: ADME, organism-based; conditions: read-out: Drug uptake
[50] = Kidney concentration in mouse at 50 mg/kg, po measured at 2 hrs; type: ADME, organism-based; conditions: read-out: Drug uptake
[51] = Half-life in rat at 10 mg/kg, po; type: ADME, organism-based; conditions: in vivo

solubility [1]: 1 µM (≈ 0.332 µg/mL) | pEC50 [3]: 6.36 | Cmax [8]: 1450 nM | AUC [9]: 1.4 µM·h | AUC [10]: 1.5 µM·h | Cmax [11]: 1080 nM | t1/2 [12]: 2 h | AUC [13]: 2.6 µM·h | bioavailability [14]: 17.4% | Cmax [15]: 9800 nM | half-life [16]: 3.9 h | AUC [17]: 27.4 µM·h | AUC [18]: 35.5 µM·h | bioavailability [19]: 37.9% | AUC(0-inf) [20]: 487 ng·h/mL | %AUCextra [21]: 1.1% | MRT inf [22]: 0.7 h | AUC(0-inf) [23]: 838 ng·h/mL | %AUCextra [24]: 2.5% | MRT inf [25]: 2 h | C0 [26]: 0.5 ng/mL | AUC [27]: 803.3 ng·h/mL | Vz [28]: 5.4 L/kg | MRT inf [29]: 17.4 h | C0 [30]: 2.6 ng/mL | AUC [31]: 7348.4 ng·h/mL | Vz [32]: 2.2 L/kg | concentration at 0.5 h [33]: 526 ng/g | concentration at 1 h [34]: 737 ng/g | concentration at 2 h [35]: 435 ng/g | concentration at 0.5 h [36]: 372 ng/g | concentration at 1 h [37]: 276 ng/g | concentration at 2 h [38]: 146 ng/g | concentration at 0.5 h [39]: 1050 ng/g | concentration at 1 h [40]: 1290 ng/g | concentration at 2 h [41]: 893 ng/g | concentration at 0.5 h [42]: 3340 ng/g | concentration at 1 h [43]: 6370 ng/g | concentration at 2 h [44]: 3980 ng/g | concentration at 0.5 h [45]: 1900 ng/g | concentration at 1 h [46]: 2080 ng/g | concentration at 2 h [47]: 1420 ng/g | concentration at 0.5 h [48]: 6430 ng/g | concentration at 1 h [49]: 11500 ng/g | concentration at 2 h [50]: 7480 ng/g | t1/2 [51]: 3.7 h
Structure (SMILES): FC(F)(F)c1cc2c(NC3CCCc4ccccc43)ncnc2[nH]1 (stereo in doubt)
Activity [2]: 55.5% | Activity (HeLa [4]): 2.1% | Activity (HeLa [5]): 10.7% | Activity (HeLa [6]): 2.59% | Ratio [7]: 40.02
